Experimental data from patent US6528492B1, “SINGLE-STEP PROCESS FOR PREPARING 7, 16-DEOXY-2-AZA-10-0-CLADINOSIL-12-0-DESOSAMINIL-4, 5-DIHYDROXY-6-ETHYL-3,5,9,11,13,15-HEXAMETHYLBICYCLE (11.2.1) HEXADECA-1(2)-EN-ONA AND OBTAINING A NEW FORM OF 9-DEOXO-9A-METHYL-9A-AZA-9A-HOMOERYTHROMYCIN A” (Instituto de Investigacion en Quimica Aplicada S.C., priority 2001, dated 2003).

Key:
[1] = Moisture uptake on exposure to room conditions; assay type: physicochemical; conditions: exposed to room conditions, relative humidity average of 45%, ten days
Excerpt: In addition to its novel features, the physical form obtained has physical characteristics that make it useful in preparing pharmaceutical preparations, with significant advantages over the forms existing to date. […] In contrast, the anhydrous crystalline form obtained here, when exposed to room conditions, at an relative humidity average of 45%, for ten days, increases its moisture content by only 0.55%, while a reference sample of dihydrated azithromycin increased its moisture content by 1% in the same time.

[2] = Dissolution profile of 500 mg azithromycin tablets; assay type: physicochemical; conditions: total weight one gram, solvents and procedure similar to capsules in U.S. Pharmacopoeia 2000, page 186
Protocol: In order to test the performance of anhydrous crystalline azithromycin in producing pharmaceutical preparations, 500 mg azithromycin tablets were made with total weight of one gram. The dissolution profile of these tablets was determined, and compared with the dissolution profile of tablets made with the same preparation using dihydrated azithromycin. The used solvents, and the procedure followed, were similar to those indicated for capsules in U.S. Pharmacopoeia 2000, page 186. […] This property gives the anhydrous crystalline form reported herein significant practical advantages over the dihydrated forms, given that increased solubility of the pharmaceutical preparation generally implies greater bioavailabilty of the drug and in consequence increases its therapeutic effectiveness.

[3] = as indicated by patent PCT/US87/0612; cited from earlier work

Row | SMILES | increase of moisture content [1] | dissolution values of tablets compared with tablets made with dihydrated azithromycin [2] | hygroscopicity [3]
1 | CCC1OC(=O)C(C)C(OC2CC(C)(OC)C(O)C(C)O2)C(C)C(OC2OC(C)CC(N(C)C)C2O)C(C)(O)CC(C)CN(C)C(C)C(O)C1(C)O (stereo not shown) [anhydrous crystalline form, 9-deoxo-9a-methyl-9a-aza-9a-homoerythromycin A] | 0.55% | significantly higher | –
2 | CCC1OC(=O)C(C)C(OC2CC(C)(OC)C(O)C(C)O2)C(C)C(OC2OC(C)CC(N(C)C)C2O)C(C)(O)CC(C)CN(C)C(C)C(O)C1(C)O (stereo not shown) [dihydrated azithromycin, 9-deoxo-9a-methyl-9a-aza-9a-homoerythromycin A] | 1% | – | –
3 | CCC1OC(=O)C(C)C(OC2CC(C)(OC)C(O)C(C)O2)C(C)C(OC2OC(C)CC(N(C)C)C2O)C(C)(O)CC(C)CN(C)C(C)C(O)C1(C)O (stereo not shown) [forms reported by Kobrehel et al., 9-deoxo-9a-methyl-9a-aza-9a-homoerythromycin A] | – | – | highly hygroscopes
